In ChEMBL document CHEMBL1201862, “PubChem BioAssay data set” (2004):
Calls of active or inactive are those of the source.

Experiments:
[1] = molecular target: T1, Lysosomal acid glucosylceramidase (Homo sapiens, UniProt P04062); experiment: Dose response cell-based high throughput screening assay to identify enhancers of beta-glucosidase activity. [Related pubchem assays: 784 ]; type: functional
T1 sequence (P04062 whole entry): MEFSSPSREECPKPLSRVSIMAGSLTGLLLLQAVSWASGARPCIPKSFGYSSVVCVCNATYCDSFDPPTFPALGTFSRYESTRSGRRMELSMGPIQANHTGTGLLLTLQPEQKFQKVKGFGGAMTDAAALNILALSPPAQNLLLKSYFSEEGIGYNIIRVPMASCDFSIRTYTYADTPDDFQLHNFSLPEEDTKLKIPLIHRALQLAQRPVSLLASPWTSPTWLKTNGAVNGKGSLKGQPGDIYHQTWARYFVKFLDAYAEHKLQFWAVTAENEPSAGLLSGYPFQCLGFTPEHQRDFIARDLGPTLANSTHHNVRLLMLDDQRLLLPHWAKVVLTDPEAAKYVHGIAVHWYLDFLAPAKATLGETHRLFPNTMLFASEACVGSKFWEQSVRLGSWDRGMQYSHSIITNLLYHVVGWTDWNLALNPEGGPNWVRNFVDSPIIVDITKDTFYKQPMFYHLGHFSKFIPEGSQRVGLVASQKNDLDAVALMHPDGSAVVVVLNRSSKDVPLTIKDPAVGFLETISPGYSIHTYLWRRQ

[2] = A cytotoxicity screen of small molecule inhibitors of the PhoP region in Salmonella typhi identified in the primary screen. [Related pubchem assays: 1850, 1864, 1985 ]; type: functional
[3] = molecular target: T2, Scavenger receptor class B member 1 (Mus musculus, UniProt Q61009); experiment: mouse SR-BI DiI-HDL uptake blockers – ldlA[mSR-BI] cells, fluorescence, cherry pick, dose response (AID 493194); type: functional, cell-based;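 also: cellular uptake of fluorescent DiI-labeled HDL measured as cell fluorescence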
T2 sequence (Q61009 whole entry): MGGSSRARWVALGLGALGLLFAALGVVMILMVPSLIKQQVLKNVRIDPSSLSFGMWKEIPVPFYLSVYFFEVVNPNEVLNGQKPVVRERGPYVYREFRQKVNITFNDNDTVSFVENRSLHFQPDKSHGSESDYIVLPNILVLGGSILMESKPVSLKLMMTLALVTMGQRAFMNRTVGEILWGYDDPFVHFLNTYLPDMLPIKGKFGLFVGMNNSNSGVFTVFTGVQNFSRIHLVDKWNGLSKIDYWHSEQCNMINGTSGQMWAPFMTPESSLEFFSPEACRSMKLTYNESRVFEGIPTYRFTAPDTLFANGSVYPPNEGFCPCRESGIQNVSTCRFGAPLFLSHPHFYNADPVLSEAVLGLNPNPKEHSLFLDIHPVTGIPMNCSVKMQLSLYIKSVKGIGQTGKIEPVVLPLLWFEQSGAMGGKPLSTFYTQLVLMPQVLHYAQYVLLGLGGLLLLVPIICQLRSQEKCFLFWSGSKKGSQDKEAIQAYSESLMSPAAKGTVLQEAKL

[4] = Counterscreen for IDE inhibitors: Luminescence-based cell-based high throughput dose response assay to identify compounds that are cytotoxic to HEK cells. [Related pubchem assays: 434962 (Primary screen (IDE inhibitors in singlicate)), 449730 (Counterscreen (Cytotoxicity in triplicate)), 435028 (Confirmation (IDE inhibitors in triplicate)) …; type: functional; conditions: HEK293
Insulin-degrading enzyme = molecular target: T3, Insulin-degrading enzyme (Homo sapiens, UniProt P14735); experiment: Dose Response: Fluorescence polarization-based cell-based high throughput dose response assay for inhibitors of insulin-degrading enzyme (IDE). [Related pubchem assays: 434962 (Primary screen (IDE inhibitors in singlicate)), 449730 (Counterscreen (Cytotoxicity in triplicate)), 435028 (Confirmation (IDE inhibitors in triplicate)), 434984 (Summary …; type: functional
T3 sequence (P14735 whole entry): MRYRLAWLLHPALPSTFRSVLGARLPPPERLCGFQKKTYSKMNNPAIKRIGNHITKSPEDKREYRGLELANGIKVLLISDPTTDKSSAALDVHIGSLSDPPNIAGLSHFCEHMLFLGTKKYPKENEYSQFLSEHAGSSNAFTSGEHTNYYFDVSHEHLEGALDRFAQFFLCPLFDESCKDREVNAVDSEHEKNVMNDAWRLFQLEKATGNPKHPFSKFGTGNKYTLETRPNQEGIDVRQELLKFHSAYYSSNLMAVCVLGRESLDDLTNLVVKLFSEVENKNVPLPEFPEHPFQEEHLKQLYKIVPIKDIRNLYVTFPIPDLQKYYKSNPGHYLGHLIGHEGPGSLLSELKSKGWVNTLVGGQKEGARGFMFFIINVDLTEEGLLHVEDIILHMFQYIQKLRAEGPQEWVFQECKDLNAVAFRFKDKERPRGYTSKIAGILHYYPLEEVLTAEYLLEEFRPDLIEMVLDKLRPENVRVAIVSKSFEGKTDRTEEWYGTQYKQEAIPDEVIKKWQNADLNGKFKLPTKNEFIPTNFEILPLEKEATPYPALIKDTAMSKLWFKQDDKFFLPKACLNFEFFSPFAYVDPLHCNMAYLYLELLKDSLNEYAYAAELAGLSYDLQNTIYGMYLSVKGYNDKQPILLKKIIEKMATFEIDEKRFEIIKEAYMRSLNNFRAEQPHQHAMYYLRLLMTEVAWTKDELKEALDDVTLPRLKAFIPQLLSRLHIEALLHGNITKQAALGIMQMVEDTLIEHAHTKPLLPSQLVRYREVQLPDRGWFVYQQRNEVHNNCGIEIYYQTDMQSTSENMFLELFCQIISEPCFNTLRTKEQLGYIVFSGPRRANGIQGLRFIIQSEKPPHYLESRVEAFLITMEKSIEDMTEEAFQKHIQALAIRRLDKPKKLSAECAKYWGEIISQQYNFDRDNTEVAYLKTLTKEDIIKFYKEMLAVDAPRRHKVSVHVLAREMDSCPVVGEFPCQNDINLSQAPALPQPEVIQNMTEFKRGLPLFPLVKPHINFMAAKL

Estrogen receptor beta [5] = molecular target: T4, Estrogen receptor beta (Homo sapiens, UniProt Q92731); experiment: blockers of SRC-3 recruitment to ERβ – biochemical, ELISA, streptavidin-HRP readout, orthogonal assay, confirmation (AID 1060)
Estrogen receptor beta [6] = molecular target: T4, Estrogen receptor beta
[7] = molecular target: T5, Carboxy-terminal domain RNA polymerase II polypeptide A small phosphatase 1 (Homo sapiens, UniProt Q9GZU7); experiment: CTDSP1 inhibitors, concentration-response, biochemical, absorbance readout, ultra-high-throughput screen actives (AID 540297); type: functional
T5 sequence (Q9GZU7 whole entry): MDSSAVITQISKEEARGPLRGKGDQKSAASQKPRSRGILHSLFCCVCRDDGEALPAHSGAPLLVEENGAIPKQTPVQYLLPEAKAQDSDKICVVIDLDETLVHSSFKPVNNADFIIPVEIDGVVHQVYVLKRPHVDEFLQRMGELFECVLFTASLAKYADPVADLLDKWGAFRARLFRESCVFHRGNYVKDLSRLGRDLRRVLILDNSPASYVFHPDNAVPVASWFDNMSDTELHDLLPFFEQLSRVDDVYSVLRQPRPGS

[8] = system: Streptococcus sp. 'group A'; experiment: Streptococcus pyogenes SK(-)GAS viability under kanamycin – luminescence, BacTiterGlo, confirmation, counter-screen for streptokinase expression inhibitor project, dose response (AID 1900); type: functional, organism-based
Streptokinase A = molecular target: T6, Streptokinase A (Streptococcus pyogenes serotype M1, UniProt P10520); experiment: viability-normalized secreted streptokinase activity reduction – plasminogen activation absorbance, OD405, dose response (AID 1914); type: functional, Streptococcus pyogenes M1 GAS;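 also: secreted streptokinase activity via plasminogen activation per viability signal from cell pellet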
T6 sequence (P10520 whole entry): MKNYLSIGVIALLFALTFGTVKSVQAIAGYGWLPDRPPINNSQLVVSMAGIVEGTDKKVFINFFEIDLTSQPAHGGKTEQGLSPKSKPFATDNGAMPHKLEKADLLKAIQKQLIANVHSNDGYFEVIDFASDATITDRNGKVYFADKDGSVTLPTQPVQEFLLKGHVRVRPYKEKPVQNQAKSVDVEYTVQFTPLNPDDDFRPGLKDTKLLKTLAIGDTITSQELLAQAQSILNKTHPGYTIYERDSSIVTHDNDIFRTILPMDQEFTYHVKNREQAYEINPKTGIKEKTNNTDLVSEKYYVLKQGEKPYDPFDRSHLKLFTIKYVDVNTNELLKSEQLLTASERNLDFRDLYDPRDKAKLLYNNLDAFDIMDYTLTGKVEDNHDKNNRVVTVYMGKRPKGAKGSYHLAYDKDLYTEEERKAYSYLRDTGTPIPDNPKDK

[9] = molecular target: Induced myeloid leukemia cell differentiation protein Mcl-1 (Homo sapiens, UniProt Q07820); type: functional
Streptococcus = experiment: GAS UMAA2166 growth inhibition – luminescence, BacTiterGlo, counter-screen for streptokinase expression inhibitor project, dose response (AID 1915); type: functional, organism-based;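 also: potency for reduction of bacterial viability or growth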
Mucolipin-3 = molecular target: T7, Mucolipin-3 (Homo sapiens, UniProt Q8TDD5); experiment: Dose response cell-based high-throughput screening assay for agonists of the transient receptor potential channel ML3 (TRPML3). [Related pubchem assays: 1526, 1424, 1448 ]; type: functional
T7 sequence (Q8TDD5 whole entry): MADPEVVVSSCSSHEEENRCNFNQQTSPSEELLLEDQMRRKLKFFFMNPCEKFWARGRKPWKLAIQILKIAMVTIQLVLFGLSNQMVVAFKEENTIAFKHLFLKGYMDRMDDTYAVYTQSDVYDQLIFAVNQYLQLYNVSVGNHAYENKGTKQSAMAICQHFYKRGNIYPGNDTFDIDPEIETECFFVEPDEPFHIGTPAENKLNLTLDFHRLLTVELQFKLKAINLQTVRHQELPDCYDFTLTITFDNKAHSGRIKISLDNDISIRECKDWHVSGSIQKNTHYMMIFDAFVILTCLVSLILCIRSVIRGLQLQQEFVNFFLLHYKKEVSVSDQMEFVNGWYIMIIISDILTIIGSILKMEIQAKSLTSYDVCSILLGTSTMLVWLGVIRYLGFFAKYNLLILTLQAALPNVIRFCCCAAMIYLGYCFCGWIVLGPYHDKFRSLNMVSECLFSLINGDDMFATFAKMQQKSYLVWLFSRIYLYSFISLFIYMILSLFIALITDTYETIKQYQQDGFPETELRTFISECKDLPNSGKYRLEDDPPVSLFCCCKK

Ion channel NompC = Ion channel NompC (Danio rerio, UniProt Q7T1G6); experiment: Fluorescence counterscreen assay for TRPML3 agonists: dose response cell-based high-throughput screening assay to identify agonists of the transient receptor potential channel N1 (TRPN1). [Related pubchem assays: 1526, 1424, 1448 ]; type: functional
Prothrombin = Prothrombin (Homo sapiens, UniProt P00734); experiment: Thrombin 1536 HTS Dose Response Confirmation. [Related pubchem assays: 1046 (Thrombin 1536 HTS; hits were confirmed in this assay)]; type: functional

T4 sequence (Q92731 whole entry): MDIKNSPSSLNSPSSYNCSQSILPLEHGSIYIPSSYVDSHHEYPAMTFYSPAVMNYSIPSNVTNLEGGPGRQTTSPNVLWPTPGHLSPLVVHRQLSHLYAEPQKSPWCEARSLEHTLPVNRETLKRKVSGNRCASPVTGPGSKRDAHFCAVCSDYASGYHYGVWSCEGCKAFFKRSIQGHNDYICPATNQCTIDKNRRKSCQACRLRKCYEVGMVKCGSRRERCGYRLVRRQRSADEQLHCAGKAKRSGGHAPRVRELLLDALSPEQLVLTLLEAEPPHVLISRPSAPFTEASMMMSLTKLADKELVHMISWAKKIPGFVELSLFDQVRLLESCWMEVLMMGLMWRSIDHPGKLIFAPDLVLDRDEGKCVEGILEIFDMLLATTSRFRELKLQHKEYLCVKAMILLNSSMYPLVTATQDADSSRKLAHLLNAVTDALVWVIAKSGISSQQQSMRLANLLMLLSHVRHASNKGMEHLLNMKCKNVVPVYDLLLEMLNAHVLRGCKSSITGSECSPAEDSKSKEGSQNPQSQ
Sequence of Ion channel NompC (Q7T1G6 whole entry): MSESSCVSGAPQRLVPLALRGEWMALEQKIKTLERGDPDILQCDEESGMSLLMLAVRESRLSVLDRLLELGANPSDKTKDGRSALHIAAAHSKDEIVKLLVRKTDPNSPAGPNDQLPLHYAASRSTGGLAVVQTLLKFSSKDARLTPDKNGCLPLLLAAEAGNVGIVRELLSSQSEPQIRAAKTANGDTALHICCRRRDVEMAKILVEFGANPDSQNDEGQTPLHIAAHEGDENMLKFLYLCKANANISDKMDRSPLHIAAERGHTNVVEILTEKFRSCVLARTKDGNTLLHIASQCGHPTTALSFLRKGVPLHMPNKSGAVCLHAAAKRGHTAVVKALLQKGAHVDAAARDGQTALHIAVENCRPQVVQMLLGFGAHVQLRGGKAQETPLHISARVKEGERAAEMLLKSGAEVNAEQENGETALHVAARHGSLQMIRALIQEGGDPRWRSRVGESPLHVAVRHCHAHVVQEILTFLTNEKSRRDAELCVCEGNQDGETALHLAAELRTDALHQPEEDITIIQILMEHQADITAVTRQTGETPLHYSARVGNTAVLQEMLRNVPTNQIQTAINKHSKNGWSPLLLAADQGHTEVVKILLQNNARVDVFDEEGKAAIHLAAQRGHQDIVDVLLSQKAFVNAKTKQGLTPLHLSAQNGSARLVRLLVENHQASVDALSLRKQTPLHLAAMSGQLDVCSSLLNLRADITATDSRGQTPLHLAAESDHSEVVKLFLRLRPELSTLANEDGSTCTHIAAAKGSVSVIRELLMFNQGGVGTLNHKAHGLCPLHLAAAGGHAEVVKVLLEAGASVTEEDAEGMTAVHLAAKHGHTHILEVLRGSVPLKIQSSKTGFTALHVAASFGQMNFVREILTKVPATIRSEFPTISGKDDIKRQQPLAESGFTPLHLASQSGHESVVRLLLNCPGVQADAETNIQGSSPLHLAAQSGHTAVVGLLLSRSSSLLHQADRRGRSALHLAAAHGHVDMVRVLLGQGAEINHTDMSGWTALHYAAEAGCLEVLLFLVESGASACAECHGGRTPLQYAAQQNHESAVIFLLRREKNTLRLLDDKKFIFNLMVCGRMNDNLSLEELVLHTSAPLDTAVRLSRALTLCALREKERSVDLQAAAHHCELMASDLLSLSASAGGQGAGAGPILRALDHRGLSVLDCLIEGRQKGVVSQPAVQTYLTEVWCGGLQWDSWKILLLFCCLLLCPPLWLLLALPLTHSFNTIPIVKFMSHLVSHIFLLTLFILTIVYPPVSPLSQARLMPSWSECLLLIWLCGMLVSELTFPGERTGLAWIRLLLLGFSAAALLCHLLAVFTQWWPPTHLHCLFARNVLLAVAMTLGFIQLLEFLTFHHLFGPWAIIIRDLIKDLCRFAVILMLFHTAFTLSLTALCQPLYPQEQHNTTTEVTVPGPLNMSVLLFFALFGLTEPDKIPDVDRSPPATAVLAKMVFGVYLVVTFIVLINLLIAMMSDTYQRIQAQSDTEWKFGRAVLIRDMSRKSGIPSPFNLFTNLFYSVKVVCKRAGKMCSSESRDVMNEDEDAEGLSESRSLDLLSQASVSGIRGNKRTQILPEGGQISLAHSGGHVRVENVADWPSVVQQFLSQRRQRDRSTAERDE
Sequence of Induced myeloid leukemia cell differentiation protein Mcl-1 (Q07820 whole entry): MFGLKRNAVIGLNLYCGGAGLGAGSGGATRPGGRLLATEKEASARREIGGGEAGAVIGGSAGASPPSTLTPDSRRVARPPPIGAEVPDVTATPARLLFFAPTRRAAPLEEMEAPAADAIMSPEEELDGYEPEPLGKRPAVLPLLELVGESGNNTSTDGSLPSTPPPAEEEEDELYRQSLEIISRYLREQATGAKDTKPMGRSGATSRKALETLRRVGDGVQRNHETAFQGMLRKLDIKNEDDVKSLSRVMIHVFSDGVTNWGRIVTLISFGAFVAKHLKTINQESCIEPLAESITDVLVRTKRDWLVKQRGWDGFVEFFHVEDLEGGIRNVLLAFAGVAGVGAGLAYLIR

Question: Which EC50 [1] does the source give for `CCN1CCN(C(c2ccc(OC)c(OC)c2)c2nnnn2C(C)(C)C)CC1` (centres undefined) here?
Answer: The EC50 was > 50 µM (not active).

Question: For `Oc1c(Br)cc(Br)cc1CNc1ccccn1`, which EC50 [2] is on record?
Answer: The EC50 was > 50 µM (active).

Question: For `CCc1cc2cc3c(cc2nc1SCC(=O)OC(C)C)OCO3`, which AC50 [3] is on record?
Answer: The AC50 was 0.366 µM (active).

Question: Which IC50 [4] does the source give for `COc1ccc2[nH]c3c(NCc4ccco4)ncnc3c2c1` here?
Answer: Its IC50 is 19.3 µM (not active).

Question: And the IC50 (Insulin-degrading enzyme)?
Answer: The IC50 was 21.2 µM (not active).

Question: For `O=C1CC(Cc2ccccc2)C(=O)N1c1ccc(Cl)cn1` (centres undefined), which EC50 [1] is on record?
Answer: Its EC50 is > 10 µM (not active).

Question: For `O=C1c2ccccc2-c2onc3c(Oc4ccccc4)cc(O)c1c23`, which IC50 (Estrogen receptor beta [5]) is on record?
Answer: Its IC50 is 37 µM (not active).

Question: For `COc1ccc2c(=O)c3c(=O)n(Cc4ccco4)c(-c4ccco4)nc3oc2c1`, which IC50 (Estrogen receptor beta [6]) is on record?
Answer: Its IC50 is > 50 µM (not active).

Question: And the IC50 [7]?
Answer: The IC50 was 4.9 µM (active).

Question: With `CCCOc1ccc(S(=O)(=O)n2cc(F)c(=O)[nH]c2=O)cc1` as the compound, how does the EC50 [2] read?
Answer: Its EC50 is > 50 µM (active).

Question: Which EC50 [8] does the source give for `COC(=O)c1c(NC(=O)Cc2cccs2)sc2c1CCCC2` here?
Answer: Its EC50 is 20.6 µM (active).

Question: And the EC50 (Streptokinase A)?
Answer: The EC50 was 17.7 µM (active).

Question: And the IC50 (Estrogen receptor beta [6])?
Answer: Its IC50 is 4.51 µM (active).

Question: And the IC50 (Estrogen receptor beta [5])?
Answer: Its IC50 is 103 µM (not active).

Question: And the IC50 [9]?
Answer: Its IC50 is 3.35 µM (active).

Question: And the EC50 (Streptococcus)?
Answer: The EC50 was > 150 µM (not active).

Question: With `O=S(=O)(c1ccc2ccccc2c1)N1CCCCCC1` as the compound, how does the EC50 (Mucolipin-3) read?
Answer: The EC50 was 1.71 µM (active).

Question: And the EC50 (Ion channel NompC)?
Answer: The EC50 was > 29.9 µM (not active).

Question: With `O=C(c1ccc([N+](=O)[O-])cc1)n1nc(-c2ccccc2)nc1NCc1ccc(F)cc1` as the compound, how does the IC50 (Prothrombin) read?
Answer: Its IC50 is 0.464 µM (active).
